# The source made the active and inactive calls.
# Assays:
# [1] = target: Ras and Rab interactor 1/Tyrosine-protein kinase ABL1 (Homo sapiens, UniProt P00519+Q13671); format: functional;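 note: biochemical TR-FRET dose-response test measuring inhibition of binding between Rin1 and Abl proteins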
# [2] = target: Prothrombin (Homo sapiens, UniProt P00734); assay: Thrombin 1536 HTS Dose Response Confirmation. [Related pubchem assays: 1046 (Thrombin 1536 HTS; hits were confirmed in this assay)]; format: functional
# [3] = target: T1, Microphthalmia-associated transcription factor (Homo sapiens, UniProt O75030); assay: reducers of TRPM1 reporter luminescence, concentration series – cell-based, SK-MEL-5, cherry-picked, set 3, MITF inhibitor project, dose response (AID 493073); format: functional;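 note: SK-MEL-5 melanoma cells with luciferase driven by the MITF target TRPM1 promoter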
# T1 sequence (O75030 whole entry): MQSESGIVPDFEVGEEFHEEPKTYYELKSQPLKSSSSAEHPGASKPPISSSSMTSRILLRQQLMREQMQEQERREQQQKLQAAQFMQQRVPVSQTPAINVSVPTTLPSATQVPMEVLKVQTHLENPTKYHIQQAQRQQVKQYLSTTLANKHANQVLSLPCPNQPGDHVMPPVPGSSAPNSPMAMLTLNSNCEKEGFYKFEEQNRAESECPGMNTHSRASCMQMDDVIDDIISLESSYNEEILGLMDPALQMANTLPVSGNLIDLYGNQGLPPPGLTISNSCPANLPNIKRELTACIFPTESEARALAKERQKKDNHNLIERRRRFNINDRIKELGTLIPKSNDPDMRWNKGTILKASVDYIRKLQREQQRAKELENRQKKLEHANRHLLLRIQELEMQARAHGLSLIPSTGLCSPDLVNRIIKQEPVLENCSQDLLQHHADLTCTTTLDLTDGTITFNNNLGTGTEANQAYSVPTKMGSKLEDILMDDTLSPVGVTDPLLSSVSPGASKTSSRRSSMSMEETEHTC
# [4] = system: H9c2; assay: cells; format: functional, cell-based; settings: Rattus norvegicus, H9c2, Myocardium;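 note: confirmatory concentration-response retest of ultra-high-throughput screening hits for modulation of myocardial damage; cell death induced by hydrogen peroxide oxidative stress; compound pretreatment for 60 min then peroxide exposure for 2 h; potency is for protecting the cells against peroxide damage rather than for killing them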
# [5] = system: BJ; assay: BJ-TERT fibroblast viability loss – cell-based, RAS-independent, luminescence, dose response (AID 1933); format: functional; settings: Homo sapiens
# [6] = system: BJ; assay: cells; format: functional, cell-based; settings: Homo sapiens
# [7] = Trypanosoma cruzi growth suppression in host cells – NIH3T3 host cells, beta-gal luminescence, confirmation (AID 2044); format: functional, cell-based;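 note: intracellular parasites grown in NIH/3T3 mouse fibroblasts as host cells; luminescent beta-galactosidase reporter signal from transgenic T. cruzi replicating inside host cells; inhibitors lower the luminescence signal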
# [8] = NIH3T3 cell viability loss – ATP luminescence, mouse fibroblasts, counter-screen, dose response (AID 2010); format: functional, cell-based;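 note: cells exposed to compound for about 90 hours before reading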
# [9] = system: BJ; assay: BJ-TERT-LT-ST fibroblast viability loss – cell-based, RAS-independent, luminescence, dose response (AID 1935); format: functional; settings: Homo sapiens;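 note: BJ fibroblasts immortalized with TERT plus LT and ST oncogenes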
# [10] = DRD fibroblast viability loss – cell-based, non-viral oncogenic, luminescence, dose response (AID 1934); format: functional; settings: Homo sapiens
# [11] = target: T2, Replicative DNA helicase DnaB (Mycobacterium tuberculosis, UniProt P9WMR3); assay: DnaB intein splicing inhibitors, dose response, biochemical, cell-free fluorescence (AID 449749); format: functional
# T2 sequence (P9WMR3 whole entry): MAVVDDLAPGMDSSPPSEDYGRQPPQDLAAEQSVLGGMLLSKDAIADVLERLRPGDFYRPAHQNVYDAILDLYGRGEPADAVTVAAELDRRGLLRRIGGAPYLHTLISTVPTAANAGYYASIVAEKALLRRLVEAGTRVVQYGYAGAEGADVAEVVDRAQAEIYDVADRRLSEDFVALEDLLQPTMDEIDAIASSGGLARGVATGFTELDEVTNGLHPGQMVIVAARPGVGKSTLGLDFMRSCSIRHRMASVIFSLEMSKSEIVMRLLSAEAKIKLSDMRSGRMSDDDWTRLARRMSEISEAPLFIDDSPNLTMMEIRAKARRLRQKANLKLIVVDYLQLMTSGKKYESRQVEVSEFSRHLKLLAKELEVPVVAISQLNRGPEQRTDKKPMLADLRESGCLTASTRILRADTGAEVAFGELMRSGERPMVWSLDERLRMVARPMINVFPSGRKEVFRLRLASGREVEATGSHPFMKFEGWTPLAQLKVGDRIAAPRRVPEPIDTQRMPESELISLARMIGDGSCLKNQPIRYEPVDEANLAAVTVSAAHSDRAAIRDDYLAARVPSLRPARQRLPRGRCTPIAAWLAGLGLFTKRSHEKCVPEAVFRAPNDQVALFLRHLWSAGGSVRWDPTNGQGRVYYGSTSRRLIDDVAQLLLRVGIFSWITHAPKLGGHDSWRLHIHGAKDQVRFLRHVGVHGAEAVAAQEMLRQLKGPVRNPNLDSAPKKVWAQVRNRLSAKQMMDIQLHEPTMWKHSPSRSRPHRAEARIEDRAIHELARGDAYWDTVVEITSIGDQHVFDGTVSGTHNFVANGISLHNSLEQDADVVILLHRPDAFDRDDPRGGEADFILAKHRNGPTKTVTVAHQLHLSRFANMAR
# [12] = system: Vero; assay: cells; format: functional, cell-based; settings: Chlorocebus sabaeus
# [13] = target: T3, Protein RecA (Mycobacterium tuberculosis, UniProt P9WHJ3); assay: Fluorescence Cell-Free Homogeneous Dose Retest to Identify Inhibitors of RecA-Intein Splicing Activity. [Related pubchem assays (depositor defined):AID2097, AID2223, AID489010, AID492950]; format: functional
# T3 sequence (P9WHJ3 whole entry): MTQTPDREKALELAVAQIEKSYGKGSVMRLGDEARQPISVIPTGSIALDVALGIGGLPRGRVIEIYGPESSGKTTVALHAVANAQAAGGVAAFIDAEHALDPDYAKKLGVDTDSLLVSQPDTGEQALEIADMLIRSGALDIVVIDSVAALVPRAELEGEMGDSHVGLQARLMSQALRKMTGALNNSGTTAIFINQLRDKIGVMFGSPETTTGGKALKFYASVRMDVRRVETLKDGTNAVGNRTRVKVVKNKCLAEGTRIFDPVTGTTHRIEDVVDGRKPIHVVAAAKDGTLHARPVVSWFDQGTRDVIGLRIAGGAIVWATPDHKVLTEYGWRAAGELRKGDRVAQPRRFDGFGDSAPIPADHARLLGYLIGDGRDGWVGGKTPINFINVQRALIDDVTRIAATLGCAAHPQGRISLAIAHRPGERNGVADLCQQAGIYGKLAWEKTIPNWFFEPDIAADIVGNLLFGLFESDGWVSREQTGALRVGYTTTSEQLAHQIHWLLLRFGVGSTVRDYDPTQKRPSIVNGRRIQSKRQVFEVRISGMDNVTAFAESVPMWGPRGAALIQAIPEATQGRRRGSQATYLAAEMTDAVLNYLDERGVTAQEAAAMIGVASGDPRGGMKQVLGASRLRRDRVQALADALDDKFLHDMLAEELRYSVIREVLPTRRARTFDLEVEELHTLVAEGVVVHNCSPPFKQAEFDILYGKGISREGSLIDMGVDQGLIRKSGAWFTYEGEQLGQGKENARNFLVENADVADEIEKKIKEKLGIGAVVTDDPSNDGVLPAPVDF
# [14] = system: Vero; assay: cells; format: functional; settings: Chlorocebus sabaeus
# [15] = system: BJ; assay: growth inhibition of engineered Ras-driven BJ cells – cell-based, alamar blue fluorescence, cherrypicked samples, dose response (AID 2631); format: functional; settings: Homo sapiens;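 note: confirmatory dose-response assay in RAS-dependent BJ fibroblasts engineered with TERT, LT and ST, with cytotoxicity read by fluorescence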
# [16] = Luminescence Cell-Based Dose Retest to Confirm Inhibitors of Cancer Stem Cells. [Related pubchem assays (depositor defined):AID2717, AID2721]; format: functional; settings: Homo sapiens
# [17] = target: Paired box protein Pax-8 (Homo sapiens, UniProt Q06710); assay: PAX8 transcriptional activity inhibition in RMG-I – RMG-I cells, luciferase, cherry-pick, dose response (AID 687027); format: functional, cell-based;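 note: luciferase reporter driven by Pax8 target thyroperoxidase promoter measured by SteadyGlo luminescence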
# [18] = target: T4, Bcl-2-related protein A1 (Mus musculus, UniProt Q07440); format: functional;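 note: confirmatory dose–response counterscreen on Bfl-1, used to check hits from a UBC13 polyubiquitin inhibitor campaign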
# T4 sequence (Q07440 whole entry): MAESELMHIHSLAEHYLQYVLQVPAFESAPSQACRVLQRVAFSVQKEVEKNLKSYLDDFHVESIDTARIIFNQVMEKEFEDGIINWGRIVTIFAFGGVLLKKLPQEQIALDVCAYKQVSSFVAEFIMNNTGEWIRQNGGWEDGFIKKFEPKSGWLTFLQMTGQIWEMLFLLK
# [19] = target: T5, Ubiquitin-conjugating enzyme E2 N (Homo sapiens, UniProt P61088); format: functional
# T5 sequence (P61088 whole entry): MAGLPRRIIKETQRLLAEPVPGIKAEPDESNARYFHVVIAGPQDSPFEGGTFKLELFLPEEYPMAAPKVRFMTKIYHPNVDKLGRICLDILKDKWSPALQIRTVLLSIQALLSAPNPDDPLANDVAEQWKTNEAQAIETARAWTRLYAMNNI
# [20] = target: T5, Ubiquitin-conjugating enzyme E2 N; format: functional; remark: listed apart in the source
# [21] = target: T6, Heat shock factor protein 1 (Mus musculus, UniProt P38532); assay: enhancement of HSF1-driven luciferase signal – cell-based, NIH3T3, luminescence, dose retest, confirmation (AID 435004); format: functional;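 note: stress induced by proteasome inhibitor MG132 added 30 min after compound; luciferase reporter driven by HSF1 response element in NIH3T3 cells; actives raise luminescence as potentiators of the MG132 stress response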
# T6 sequence (P38532 whole entry): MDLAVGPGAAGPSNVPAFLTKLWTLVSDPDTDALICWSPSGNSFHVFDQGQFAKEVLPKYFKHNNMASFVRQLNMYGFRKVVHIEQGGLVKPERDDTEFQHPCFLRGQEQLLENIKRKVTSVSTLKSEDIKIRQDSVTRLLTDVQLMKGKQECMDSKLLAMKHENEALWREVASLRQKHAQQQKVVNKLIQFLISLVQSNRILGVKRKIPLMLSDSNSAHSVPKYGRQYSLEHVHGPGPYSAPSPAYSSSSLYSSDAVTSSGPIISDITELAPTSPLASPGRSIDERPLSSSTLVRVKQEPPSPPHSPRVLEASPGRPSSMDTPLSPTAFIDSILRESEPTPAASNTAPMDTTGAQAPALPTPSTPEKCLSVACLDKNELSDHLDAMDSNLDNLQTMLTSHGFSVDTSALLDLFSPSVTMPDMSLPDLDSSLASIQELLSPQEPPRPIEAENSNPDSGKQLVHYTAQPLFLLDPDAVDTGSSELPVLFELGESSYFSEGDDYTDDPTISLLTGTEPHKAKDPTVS
# Chain of Ras and Rab interactor 1/Tyrosine-protein kinase ABL1 (P00519 whole entry): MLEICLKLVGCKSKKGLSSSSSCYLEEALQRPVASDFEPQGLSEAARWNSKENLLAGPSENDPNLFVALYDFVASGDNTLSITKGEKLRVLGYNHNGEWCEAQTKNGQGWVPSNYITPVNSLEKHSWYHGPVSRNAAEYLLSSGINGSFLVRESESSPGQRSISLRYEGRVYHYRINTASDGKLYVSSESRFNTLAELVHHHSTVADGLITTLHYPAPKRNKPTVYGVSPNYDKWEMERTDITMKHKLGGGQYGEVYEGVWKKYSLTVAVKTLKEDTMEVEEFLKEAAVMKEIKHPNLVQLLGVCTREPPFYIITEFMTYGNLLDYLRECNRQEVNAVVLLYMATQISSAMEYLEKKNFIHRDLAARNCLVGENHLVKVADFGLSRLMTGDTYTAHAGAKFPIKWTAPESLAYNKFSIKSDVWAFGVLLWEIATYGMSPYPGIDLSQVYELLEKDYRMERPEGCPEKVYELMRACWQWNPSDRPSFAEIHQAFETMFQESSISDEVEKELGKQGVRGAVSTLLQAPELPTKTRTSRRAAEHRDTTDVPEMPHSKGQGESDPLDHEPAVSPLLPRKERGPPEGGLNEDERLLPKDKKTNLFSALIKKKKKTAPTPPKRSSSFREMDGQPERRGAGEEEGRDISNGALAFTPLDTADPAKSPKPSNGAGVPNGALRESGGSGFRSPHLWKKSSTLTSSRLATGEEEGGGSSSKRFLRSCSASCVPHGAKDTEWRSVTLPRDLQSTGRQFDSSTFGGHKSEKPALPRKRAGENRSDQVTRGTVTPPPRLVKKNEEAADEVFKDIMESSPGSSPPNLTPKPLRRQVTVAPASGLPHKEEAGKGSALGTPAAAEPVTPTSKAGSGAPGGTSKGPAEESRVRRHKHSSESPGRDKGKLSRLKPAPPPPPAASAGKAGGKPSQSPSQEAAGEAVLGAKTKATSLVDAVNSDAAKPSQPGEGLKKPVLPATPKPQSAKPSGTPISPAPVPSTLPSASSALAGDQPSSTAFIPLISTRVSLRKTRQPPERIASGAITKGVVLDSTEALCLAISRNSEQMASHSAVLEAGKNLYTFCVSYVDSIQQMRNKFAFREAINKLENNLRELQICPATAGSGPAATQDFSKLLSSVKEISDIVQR
# Chain of Ras and Rab interactor 1/Tyrosine-protein kinase ABL1 (Q13671 whole entry): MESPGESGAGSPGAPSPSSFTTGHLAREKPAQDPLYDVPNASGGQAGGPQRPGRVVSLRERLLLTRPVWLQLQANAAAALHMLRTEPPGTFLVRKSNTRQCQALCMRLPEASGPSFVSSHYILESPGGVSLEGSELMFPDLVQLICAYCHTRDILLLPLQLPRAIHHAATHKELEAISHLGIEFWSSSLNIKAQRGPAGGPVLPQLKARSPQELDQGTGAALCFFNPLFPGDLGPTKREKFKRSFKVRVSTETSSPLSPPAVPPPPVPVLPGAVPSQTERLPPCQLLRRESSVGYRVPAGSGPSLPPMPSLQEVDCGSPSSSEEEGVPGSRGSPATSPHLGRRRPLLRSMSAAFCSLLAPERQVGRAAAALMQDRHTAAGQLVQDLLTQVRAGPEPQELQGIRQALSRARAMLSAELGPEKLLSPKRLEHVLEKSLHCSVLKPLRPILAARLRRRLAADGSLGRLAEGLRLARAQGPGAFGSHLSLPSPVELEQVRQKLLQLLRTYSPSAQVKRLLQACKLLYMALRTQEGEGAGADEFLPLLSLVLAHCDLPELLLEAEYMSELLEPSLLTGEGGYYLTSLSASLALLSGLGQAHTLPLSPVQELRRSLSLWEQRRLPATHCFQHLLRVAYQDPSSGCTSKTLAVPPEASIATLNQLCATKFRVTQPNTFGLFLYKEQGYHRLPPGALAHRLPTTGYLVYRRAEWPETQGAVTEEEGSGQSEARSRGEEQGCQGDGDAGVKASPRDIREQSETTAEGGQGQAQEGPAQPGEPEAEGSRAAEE
# Chain of Paired box protein Pax-8 (Q06710 whole entry): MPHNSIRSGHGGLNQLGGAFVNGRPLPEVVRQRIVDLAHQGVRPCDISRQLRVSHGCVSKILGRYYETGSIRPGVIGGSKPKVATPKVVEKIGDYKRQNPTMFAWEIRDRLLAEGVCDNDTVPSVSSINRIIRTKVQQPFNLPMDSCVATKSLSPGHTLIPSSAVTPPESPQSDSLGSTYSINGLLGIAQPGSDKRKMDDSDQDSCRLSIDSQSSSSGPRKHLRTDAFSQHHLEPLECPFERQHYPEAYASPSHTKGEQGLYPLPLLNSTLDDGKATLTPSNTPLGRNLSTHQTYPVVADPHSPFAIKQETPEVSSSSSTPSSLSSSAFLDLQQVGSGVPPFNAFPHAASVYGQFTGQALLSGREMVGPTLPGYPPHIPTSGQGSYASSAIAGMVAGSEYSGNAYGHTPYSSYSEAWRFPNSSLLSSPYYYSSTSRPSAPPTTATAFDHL
compound,measurement,setting,value
COC(=O)c1ccc(CSc2nnc(-c3c[nH]c4ccccc34)n2C)o1,IC50,[1],13.8 µM (inactive)
CCOC(=O)c1c(C)n(C(=O)c2ccco2)c(=O)n1C(=O)c1ccco1,IC50,[2],0.533 µM (active)
same,IC50,[1],11 µM (inactive)
NNC(=O)c1cc2ccccc2cc1O,AC50,[3],24 µM (active)
same,IC50,[4],> 79 µM (inactive)
COc1ccc(C2CC(c3cccs3)=NN2C(=O)CCl)cc1OC (centres undefined),EC50,[5],0.834 µM (active)
same,EC50,[6],6.92 µM (active)
same,EC50,[7],2.21 µM (active)
same,EC50,[8],2.64 µM (active)
same,EC50,[9],6.05 µM (inconclusive)
same,EC50,[10],5.26 µM (inconclusive)
same,AC50,[11],8.43 µM (active)
same,IC50,[12],> 25 µM (active)
same,EC50,[13],1.41 µM (active)
same,CC50,[14],3.51 µM (active)
O=[N+]([O-])c1cccc(/C(O)=C(/C([S-])=Nc2cccc3ccccc23)[n+]2ccccc2)c1,IC50,[12],> 25 µM (active)
COc1ccc(F)cc1CN1CCN(C(=O)CCC(=O)Nc2nnc(CC(C)C)s2)CC1,EC50,[5],> 150 µM (not active)
same,EC50,[6],> 150 µM (not active)
same,EC50,[9],> 150 µM (inconclusive)
same,EC50,[10],> 150 µM (inconclusive)
same,EC50,[15],> 133 µM (inactive)
CCCCSc1cc(O)nc(N)n1,IC50,[1],22.2 µM (inactive)
O=C(Nc1ccccc1)NN(C(=O)CCl)c1ccccc1,AC50,[16],3.11 µM (active)
same,AC50,[3],8.5 µM (active)
same,AC50,[11],13.7 µM (active)
same,EC50,[13],0.861 µM (active)
same,AC50,[17],4.57 µM (active)
Cc1cccc(NC(=S)N=Nc2c(O)[nH]c3ccccc23)c1,EC50,[7],1.53 µM (active)
same,EC50,[8],4.49 µM (active)
same,IC50,[18],> 20 µM (inactive)
same,IC50,[19],15 µM (active)
same,IC50,[20],0.594 µM (active)
same,EC50,[21],8.45 µM (active)
Cc1ccc(C(=O)N2CC(C)CC(C)C2)cc1NC1=NC2CS(=O)(=O)CC2S1 (centres undefined),IC50,[1],14.3 µM (inactive)

# Source: ChEMBL document CHEMBL1201862, “PubChem BioAssay data set” (2004)
